ChEMBL document CHEMBL1255169, “Synthesis, structure-affinity relationships, and radiolabeling of selective high-affinity 5-HT4 receptor ligands as prospective imaging probes for positron emission tomography” (J Med Chem, 2010)
Activity calls are given as the source filed them. The rule behind the calls is not given here.

Legend:
[1] = molecular target: Sodium-dependent serotonin transporter (Homo sapiens, UniProt P31645); test: Binding affinity to human SERT
[2] = molecular target: T1, 5-hydroxytryptamine receptor 4 (Homo sapiens, UniProt Q13639); test: Displacement of [3H]GR113808 from human recombinant 5HT4 receptor expressed in HEK293 cells; format: cell-based
[3] = molecular target: T1, 5-hydroxytryptamine receptor 4; test: Inverse agonist activity at 5HT4 receptor expressed in HEK293/L9 cells by cAMP assay; format: functional, cell-based
[4] = molecular target: T2, Alpha-2C adrenergic receptor (Homo sapiens, UniProt P18825); test: Binding affinity to human adrenergic Alpha-2C receptor
T2 sequence (P18825 whole entry): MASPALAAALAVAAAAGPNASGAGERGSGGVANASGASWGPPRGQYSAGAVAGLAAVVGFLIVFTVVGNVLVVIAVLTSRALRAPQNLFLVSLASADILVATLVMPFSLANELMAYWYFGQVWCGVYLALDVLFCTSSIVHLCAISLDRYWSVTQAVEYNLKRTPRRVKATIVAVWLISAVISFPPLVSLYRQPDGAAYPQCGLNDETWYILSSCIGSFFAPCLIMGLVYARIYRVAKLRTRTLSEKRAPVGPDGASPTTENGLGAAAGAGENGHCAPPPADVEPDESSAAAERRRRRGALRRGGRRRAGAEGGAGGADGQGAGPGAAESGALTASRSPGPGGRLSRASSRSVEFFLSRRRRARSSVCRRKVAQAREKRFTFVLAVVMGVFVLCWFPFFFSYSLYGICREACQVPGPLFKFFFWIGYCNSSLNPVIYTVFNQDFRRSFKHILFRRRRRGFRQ

Histamine H1 receptor = Histamine H1 receptor (Cavia porcellus, UniProt P31389); test: Binding affinity to guinea pig histamine H1 receptor
[5] = molecular target: 5-hydroxytryptamine receptor 3A (Homo sapiens, UniProt P46098); test: Binding affinity to human 5-HT3 receptor
[6] = molecular target: T1, 5-hydroxytryptamine receptor 4; test: Agonist activity at 5HT4 receptor expressed in HEK293/L9 cells by cAMP assay; format: functional, cell-based
[7] = molecular target: 5-hydroxytryptamine receptor 5A (Homo sapiens, UniProt P47898); test: Binding affinity to human 5-HT5A receptor
[8] = molecular target: 5-hydroxytryptamine receptor 2A (Homo sapiens, UniProt P28223); test: Binding affinity to human 5-HT2A receptor
D(2) dopamine receptor = D(2) dopamine receptor (Rattus norvegicus, UniProt P61169); test: Binding affinity to rat dopamine D2 receptor
[9] = molecular target: Muscarinic acetylcholine receptor M4 (Homo sapiens, UniProt P08173); test: Binding affinity to human muscarinic M4 receptor
[10] = molecular target: T3, Alpha-1A adrenergic receptor (Homo sapiens, UniProt P35348); test: Binding affinity to human adrenergic alpha1A receptor
T3 sequence (P35348 whole entry): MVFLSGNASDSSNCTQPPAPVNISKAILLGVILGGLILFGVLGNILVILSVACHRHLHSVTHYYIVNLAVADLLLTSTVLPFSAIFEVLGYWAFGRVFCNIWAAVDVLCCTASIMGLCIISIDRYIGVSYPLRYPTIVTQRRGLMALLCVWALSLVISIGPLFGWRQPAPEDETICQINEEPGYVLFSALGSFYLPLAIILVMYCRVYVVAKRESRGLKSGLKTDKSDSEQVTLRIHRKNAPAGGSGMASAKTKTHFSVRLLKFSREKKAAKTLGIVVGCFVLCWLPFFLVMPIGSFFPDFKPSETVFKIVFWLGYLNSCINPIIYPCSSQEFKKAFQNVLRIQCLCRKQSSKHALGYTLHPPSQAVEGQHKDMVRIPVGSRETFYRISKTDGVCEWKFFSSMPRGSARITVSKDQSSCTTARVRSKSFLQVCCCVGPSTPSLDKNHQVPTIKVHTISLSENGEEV

D(1A) dopamine receptor = D(1A) dopamine receptor (Rattus norvegicus, UniProt P18901); test: Binding affinity to rat dopamine D1 receptor
[11] = molecular target: Sodium-dependent noradrenaline transporter (Homo sapiens, UniProt P23975); test: Binding affinity to human NET
Histamine H4 receptor = Histamine H4 receptor (Cavia porcellus, UniProt Q91ZY3); test: Binding affinity to guinea pig histamine H4 receptor
[12] = molecular target: Beta-2 adrenergic receptor (Rattus norvegicus, UniProt P10608); test: Binding affinity to rat adrenergic beta2 receptor
[13] = molecular target: Alpha-2A adrenergic receptor (Homo sapiens, UniProt P08913); test: Binding affinity to human adrenergic alpha2A receptor
D(4) dopamine receptor = molecular target: T4, D(4) dopamine receptor (Rattus norvegicus, UniProt P30729); test: Binding affinity to rat dopamine D4 receptor
T4 sequence (P30729 whole entry): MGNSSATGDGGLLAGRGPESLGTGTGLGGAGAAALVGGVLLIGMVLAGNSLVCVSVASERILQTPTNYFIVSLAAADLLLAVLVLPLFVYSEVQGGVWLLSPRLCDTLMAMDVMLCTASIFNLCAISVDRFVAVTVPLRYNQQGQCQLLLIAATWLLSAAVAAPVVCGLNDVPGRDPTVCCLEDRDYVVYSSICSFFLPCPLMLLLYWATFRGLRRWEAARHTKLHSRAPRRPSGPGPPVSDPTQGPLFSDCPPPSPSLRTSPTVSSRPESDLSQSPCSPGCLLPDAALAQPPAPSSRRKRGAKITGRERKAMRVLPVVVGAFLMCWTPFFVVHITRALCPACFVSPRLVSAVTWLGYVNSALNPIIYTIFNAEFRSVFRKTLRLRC

[14] = molecular target: Muscarinic acetylcholine receptor M2 (Homo sapiens, UniProt P08172); test: Binding affinity to human muscarinic M2 receptor
Mu-type opioid receptor = Mu-type opioid receptor (Homo sapiens, UniProt P35372); test: Binding affinity to human mu opioid receptor
[15] = molecular target: T1, 5-hydroxytryptamine receptor 4; test: Antagonist activity at 5HT4 receptor expressed in HEK293/L9 cells by cAMP assay; format: functional, cell-based
[16] = molecular target: 5-hydroxytryptamine receptor 1E (Homo sapiens, UniProt P28566); test: Binding affinity to human 5-HT1E receptor

T1 sequence (Q13639 whole entry): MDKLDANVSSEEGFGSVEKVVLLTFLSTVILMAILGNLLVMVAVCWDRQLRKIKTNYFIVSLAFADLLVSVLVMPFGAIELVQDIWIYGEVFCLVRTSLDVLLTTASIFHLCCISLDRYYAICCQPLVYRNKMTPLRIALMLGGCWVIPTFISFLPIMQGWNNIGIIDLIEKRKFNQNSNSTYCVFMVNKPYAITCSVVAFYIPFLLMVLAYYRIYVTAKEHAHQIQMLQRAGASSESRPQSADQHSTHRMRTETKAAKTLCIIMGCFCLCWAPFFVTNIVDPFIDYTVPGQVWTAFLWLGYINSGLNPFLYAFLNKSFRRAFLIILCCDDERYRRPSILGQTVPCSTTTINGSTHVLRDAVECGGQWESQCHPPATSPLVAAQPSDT
Chain of Muscarinic acetylcholine receptor M2 (P08172 whole entry): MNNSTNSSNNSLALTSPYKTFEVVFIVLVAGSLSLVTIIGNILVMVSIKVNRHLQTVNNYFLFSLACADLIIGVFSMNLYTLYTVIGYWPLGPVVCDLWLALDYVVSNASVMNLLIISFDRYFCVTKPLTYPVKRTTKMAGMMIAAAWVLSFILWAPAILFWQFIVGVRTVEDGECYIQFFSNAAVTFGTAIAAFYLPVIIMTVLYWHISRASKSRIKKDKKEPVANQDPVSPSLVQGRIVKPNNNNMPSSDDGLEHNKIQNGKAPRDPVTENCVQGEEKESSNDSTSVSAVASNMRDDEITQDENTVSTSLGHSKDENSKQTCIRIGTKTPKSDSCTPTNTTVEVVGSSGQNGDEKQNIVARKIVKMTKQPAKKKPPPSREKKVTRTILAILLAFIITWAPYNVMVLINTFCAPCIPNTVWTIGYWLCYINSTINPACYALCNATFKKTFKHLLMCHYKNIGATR
Chain of D(2) dopamine receptor (P61169 whole entry): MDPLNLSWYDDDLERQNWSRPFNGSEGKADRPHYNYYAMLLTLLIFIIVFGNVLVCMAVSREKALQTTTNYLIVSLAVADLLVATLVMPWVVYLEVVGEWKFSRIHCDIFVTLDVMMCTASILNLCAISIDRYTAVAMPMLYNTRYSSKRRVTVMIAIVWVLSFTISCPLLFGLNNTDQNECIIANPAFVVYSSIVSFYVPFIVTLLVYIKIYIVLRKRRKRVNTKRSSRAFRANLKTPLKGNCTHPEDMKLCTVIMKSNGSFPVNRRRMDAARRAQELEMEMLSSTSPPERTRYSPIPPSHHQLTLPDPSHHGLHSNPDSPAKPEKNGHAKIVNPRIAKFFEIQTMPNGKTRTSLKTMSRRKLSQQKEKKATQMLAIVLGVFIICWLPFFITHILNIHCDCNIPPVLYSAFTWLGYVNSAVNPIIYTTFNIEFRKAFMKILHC
Chain of Sodium-dependent serotonin transporter (P31645 whole entry): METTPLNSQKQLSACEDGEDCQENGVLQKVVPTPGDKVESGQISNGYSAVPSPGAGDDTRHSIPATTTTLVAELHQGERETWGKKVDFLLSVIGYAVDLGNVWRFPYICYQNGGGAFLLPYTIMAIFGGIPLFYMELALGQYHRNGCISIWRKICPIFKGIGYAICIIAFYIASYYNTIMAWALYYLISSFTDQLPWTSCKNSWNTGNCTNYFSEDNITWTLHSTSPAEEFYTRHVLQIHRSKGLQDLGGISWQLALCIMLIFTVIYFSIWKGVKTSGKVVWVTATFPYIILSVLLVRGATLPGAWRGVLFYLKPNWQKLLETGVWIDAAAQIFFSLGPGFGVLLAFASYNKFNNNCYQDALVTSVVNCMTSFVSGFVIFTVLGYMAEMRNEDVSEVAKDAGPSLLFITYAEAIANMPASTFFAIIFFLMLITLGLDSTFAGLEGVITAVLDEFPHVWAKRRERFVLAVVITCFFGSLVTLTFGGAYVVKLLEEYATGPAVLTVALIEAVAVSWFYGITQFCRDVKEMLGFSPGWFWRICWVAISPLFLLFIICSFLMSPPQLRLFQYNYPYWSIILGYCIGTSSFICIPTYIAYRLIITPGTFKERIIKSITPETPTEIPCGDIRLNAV
Chain of 5-hydroxytryptamine receptor 3A (P46098 whole entry): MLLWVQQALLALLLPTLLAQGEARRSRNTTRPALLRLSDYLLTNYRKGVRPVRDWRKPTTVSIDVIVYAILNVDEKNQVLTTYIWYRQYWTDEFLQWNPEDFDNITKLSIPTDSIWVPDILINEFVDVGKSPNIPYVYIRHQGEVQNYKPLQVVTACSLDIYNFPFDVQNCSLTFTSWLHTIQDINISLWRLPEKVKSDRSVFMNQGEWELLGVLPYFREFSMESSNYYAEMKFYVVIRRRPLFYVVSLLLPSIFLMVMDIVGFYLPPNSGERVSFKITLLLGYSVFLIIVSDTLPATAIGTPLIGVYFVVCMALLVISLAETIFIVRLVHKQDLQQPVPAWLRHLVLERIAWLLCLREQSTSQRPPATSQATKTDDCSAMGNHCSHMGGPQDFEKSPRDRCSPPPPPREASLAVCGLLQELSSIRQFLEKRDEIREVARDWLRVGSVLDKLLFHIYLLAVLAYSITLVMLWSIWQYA
Chain of 5-hydroxytryptamine receptor 2A (P28223 whole entry): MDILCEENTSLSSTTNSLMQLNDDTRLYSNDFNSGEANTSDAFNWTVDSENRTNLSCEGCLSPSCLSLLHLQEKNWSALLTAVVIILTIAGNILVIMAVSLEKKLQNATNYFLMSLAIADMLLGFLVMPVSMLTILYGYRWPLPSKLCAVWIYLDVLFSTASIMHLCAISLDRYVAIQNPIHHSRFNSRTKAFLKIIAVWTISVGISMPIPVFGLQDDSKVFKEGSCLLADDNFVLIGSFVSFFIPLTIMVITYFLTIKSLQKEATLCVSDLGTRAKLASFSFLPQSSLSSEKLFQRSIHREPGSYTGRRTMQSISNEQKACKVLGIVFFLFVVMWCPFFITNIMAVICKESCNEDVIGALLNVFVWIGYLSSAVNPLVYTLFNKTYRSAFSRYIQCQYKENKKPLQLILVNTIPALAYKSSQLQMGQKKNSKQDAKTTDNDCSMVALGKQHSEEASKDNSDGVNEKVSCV
Chain of Beta-2 adrenergic receptor (P10608 whole entry): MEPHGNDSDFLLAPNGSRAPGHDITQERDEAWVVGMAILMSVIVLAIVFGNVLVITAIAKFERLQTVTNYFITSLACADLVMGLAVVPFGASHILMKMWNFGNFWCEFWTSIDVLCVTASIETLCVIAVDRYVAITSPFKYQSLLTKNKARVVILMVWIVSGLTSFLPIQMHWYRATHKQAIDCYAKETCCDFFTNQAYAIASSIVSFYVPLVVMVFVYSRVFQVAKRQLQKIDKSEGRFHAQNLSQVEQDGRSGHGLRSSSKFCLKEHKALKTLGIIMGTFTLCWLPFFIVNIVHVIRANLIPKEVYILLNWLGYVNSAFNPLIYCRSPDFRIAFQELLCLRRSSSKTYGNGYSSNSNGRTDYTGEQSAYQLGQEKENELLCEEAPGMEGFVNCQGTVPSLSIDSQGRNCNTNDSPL
Chain of Mu-type opioid receptor (P35372 whole entry): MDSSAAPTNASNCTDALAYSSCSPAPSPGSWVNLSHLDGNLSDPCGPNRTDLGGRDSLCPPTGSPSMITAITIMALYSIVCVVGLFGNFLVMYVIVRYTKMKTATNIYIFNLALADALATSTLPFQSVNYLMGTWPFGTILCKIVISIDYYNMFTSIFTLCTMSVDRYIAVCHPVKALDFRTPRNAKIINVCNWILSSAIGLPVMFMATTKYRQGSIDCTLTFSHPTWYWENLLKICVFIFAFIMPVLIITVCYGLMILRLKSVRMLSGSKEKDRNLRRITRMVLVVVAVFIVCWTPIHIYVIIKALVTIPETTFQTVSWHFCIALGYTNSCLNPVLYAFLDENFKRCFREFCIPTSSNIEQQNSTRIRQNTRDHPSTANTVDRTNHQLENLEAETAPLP
Chain of Sodium-dependent noradrenaline transporter (P23975 whole entry): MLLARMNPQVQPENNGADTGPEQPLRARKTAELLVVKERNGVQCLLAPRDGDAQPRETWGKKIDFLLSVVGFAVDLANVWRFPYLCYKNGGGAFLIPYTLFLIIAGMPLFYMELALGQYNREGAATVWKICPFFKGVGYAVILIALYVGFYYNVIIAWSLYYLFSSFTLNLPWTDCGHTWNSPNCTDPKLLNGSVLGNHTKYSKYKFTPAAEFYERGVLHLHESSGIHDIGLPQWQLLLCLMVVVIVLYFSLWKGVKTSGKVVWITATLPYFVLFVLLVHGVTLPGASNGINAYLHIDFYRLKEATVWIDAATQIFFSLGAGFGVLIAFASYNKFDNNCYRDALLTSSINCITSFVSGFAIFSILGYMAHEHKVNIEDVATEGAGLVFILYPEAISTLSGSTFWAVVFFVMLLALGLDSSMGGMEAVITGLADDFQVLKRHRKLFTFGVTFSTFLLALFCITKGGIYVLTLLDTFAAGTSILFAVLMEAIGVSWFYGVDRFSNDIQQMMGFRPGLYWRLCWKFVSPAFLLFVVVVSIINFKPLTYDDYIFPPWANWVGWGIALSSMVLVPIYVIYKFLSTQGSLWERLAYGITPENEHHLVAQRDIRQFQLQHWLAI
Chain of Histamine H4 receptor (Q91ZY3 whole entry): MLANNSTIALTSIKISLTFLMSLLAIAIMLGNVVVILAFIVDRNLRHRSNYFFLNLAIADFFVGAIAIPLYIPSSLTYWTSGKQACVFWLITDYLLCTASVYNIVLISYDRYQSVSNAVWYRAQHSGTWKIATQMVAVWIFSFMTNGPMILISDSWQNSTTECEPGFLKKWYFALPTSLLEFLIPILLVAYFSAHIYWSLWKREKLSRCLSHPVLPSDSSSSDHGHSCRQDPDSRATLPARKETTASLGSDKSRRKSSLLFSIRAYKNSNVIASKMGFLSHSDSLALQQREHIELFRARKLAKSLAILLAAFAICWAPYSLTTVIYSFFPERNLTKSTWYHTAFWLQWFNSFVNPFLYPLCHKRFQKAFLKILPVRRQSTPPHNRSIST

| SMILES | Ki [1] [µM] | Ki [2] [µM] | Ki [4] [µM] | Ki (Histamine H1 receptor) [µM] | Ki [5] [µM] | Ki [7] [µM] | Ki [8] [µM] | Ki (D(2) dopamine receptor) [µM] | Ki [9] [µM] | Ki [10] [µM] | Ki (D(1A) dopamine receptor) [µM] | Ki [11] [µM] | Ki (Histamine H4 receptor) [µM] | Ki [12] [µM] | Ki [13] [µM] | Ki (D(4) dopamine receptor) [µM] | Ki [14] [µM] | Ki (Mu-type opioid receptor) [µM] | also measured |
| --- | --- | --- | --- | --- | --- | --- | --- | --- | --- | --- | --- | --- | --- | --- | --- | --- | --- | --- | --- |
| CCCCN1CCC(COC(=O)c2cc(Cl)c(NC)c3c2OCCO3)CC1 | 9.01 | 0.002 | 0.556 | 2.73 | 1.07 | 8.59 | 1.78 | 0.22 | 0.76 | 0.522 | 2.29 | 3.23 | > 10 | > 10 | 2.24 | 0.043 | 0.433 | > 10 | Efficacy [3]: Active; EC50 [6]: 0.0141 µM |
| CCCCN1CCC(COC(=O)c2ccc(N)c(OC)c2)CC1 | > 10 | 0.0024 | 0.989 | > 10 | 3.51 | > 10 | > 10 | > 10 | 2.58 | > 10 | > 10 | > 10 | > 10 | > 10 | > 10 | 1.27 | > 10 | > 10 | Efficacy [15]: Active; Ki [16]: > 10 µM |
